Measured values taken from publication PMC2192565 (The Journal of Experimental Medicine, 1996).
Where no end group is shown, it is not given here.

Molecular target: HLA-DRB1*0401 (Homo sapiens, UniProt P01903+P01911, A100K/A169T/F76Y/I96L/K127E/L162R/M171V/N62H/P40V/Q125Y/R42H/S133A/S149N/S66Y/V115G/V209L/W38E)
Assay: biochemical
Format: binding

| Compound | IC50 [nM] |
| --- | --- |
| QNFLLSNAPLGPQFP [I58 F] | 55 |
| QNIFLSNAPLGPQFP [L59 F] | 321 |
| QNVLLSNAPLGPQFP [I58 V] | 957 |
| QNIQLSNAPLGPQFP [L59 Q] | 750 |
| QNILLSNVPLGPQFP [A63 V] | 12 |
| QNILFSNAPLGPQFP [L60 F] | 1100 |
| DYSFLQDSDPDSFQD [Y451 F] | 563 |
| DFSYLQDSDPDSFQD [Y449 F] | 1470 |
| QNIVLSNAPLGPQFP [L59 V] | 95 |
| QNILLSNAPQGPQFP [L65 Q] | 2000 |
| QNILQSNAPLGPQFP [L60 Q] | 750 |
| QNILLSNAQLGPQFP [P64 Q] | 290 |
| DQSYLQDSDPDSFQD [Y449 Q] | 918 |
| QNILLSNQPLGPQFP [A63 Q] | 7760 |
| QNILVSNAPLGPQFP [L60 V] | 612 |
| CC[C@H](C)[C@H](NC(=O)[C@H](CC(N)=O)NC(=O)[C@@H](N)CCC(N)=O)C(=O)N[C@@H](CC(C)C)C(=O)N[C@@H](CC(C)C)C(=O)N[C@@H](CO)C(=O)N[C@@H](CC(N)=O)C(=O)N[C@@H](C)C(=O)N1CCC[C@H]1C(=O)N[C@@H](CC(C)C)C(=O)NCC(=O)N1CCC[C@H]1C(=O)N[C@@H](CCC(N)=O)C(=O)N[C@@H](Cc1ccccc1)C(=O)N1CCC[C@H]1C(=O)O [Ty 56-70] | 225 |
| QNILLSNAVLGPQFP [P64 V] | 158 |
| QNILLSNAPVGPQFP [L65 V] | 1500 |
| QNQLLSNAPLGPQFP [I58 Q] | 6770 |
